One data set concerns HEK293. Put plainly: Selectivity ratio of EC50 for human GLP1R expressed in HEK293 cells to EC50 for human GLP2R expressed in HEK293. The format is cell-based.
Data set [1] concerns the target T1, Glucagon-like peptide 2 receptor (Homo sapiens) (UniProt O95838).
T1 sequence (whole entry): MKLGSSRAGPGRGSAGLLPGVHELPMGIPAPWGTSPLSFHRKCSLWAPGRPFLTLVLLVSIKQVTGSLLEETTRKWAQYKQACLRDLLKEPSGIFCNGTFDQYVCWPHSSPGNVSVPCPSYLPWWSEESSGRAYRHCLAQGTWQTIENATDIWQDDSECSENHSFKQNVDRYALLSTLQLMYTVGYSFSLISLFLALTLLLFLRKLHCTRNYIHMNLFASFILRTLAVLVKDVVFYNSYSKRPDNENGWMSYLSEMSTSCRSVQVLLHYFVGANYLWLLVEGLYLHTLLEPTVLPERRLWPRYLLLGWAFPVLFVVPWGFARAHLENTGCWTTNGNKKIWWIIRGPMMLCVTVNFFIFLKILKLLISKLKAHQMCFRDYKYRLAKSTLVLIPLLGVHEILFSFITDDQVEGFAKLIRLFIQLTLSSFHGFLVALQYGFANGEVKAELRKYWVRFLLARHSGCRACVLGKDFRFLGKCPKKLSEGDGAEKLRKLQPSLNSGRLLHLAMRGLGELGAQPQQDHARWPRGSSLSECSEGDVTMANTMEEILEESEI
Put plainly: Potency index, ratio of compound EC50 to compound 2 EC50 for human GLP2R expressed in HEK293 cells. It counts as cell-based.

The target in data set [2] is Glucagon receptor (Homo sapiens) (UniProt P47871). Put plainly: Agonist activity at human GCGR expressed in HEK293 cells after 5 hrs by luciferase reporter gene assay. The format is cell-based. A general note: In a reporter assay the amount or activity of a reporter protein is the signal.
Sequence of Glucagon receptor (Homo sapiens) (P47871 whole entry): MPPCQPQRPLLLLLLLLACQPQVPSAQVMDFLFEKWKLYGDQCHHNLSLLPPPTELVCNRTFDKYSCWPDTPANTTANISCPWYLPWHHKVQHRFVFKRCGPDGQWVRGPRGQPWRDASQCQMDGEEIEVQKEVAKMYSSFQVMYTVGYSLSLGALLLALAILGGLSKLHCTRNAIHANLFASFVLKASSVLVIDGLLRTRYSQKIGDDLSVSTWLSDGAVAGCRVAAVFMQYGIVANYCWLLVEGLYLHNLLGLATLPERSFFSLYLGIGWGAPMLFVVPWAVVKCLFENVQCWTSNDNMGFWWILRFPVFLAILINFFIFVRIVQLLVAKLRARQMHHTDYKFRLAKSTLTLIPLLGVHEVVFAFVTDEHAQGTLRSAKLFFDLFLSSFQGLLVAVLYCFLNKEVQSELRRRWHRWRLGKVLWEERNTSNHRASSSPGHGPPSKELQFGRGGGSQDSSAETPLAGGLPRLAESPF
The target in data set [3] is Glucagon-like peptide 1 receptor (Homo sapiens, UniProt P43220). Put plainly: Agonist activity at human GLP1R expressed in HEK293 cells after 5 hrs by luciferase reporter gene assay. It counts as cell-based.
Sequence of Glucagon-like peptide 1 receptor (P43220 whole entry): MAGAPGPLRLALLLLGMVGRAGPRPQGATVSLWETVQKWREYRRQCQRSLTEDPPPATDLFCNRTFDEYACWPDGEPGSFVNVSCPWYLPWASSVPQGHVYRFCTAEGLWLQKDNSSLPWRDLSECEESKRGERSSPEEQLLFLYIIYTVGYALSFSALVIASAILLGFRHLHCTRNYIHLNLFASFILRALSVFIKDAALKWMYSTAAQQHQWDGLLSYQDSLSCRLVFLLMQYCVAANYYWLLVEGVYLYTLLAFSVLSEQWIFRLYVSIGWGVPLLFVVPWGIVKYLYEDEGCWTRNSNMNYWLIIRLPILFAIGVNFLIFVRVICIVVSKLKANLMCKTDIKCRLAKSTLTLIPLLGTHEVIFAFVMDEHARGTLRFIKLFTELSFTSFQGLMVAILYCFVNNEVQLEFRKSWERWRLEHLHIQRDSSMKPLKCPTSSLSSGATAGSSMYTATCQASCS
The target of data set [4] is T2, Glucagon-like peptide 2 receptor (Homo sapiens, UniProt O95838).
T2 sequence (O95838 whole entry): T1 sequence (whole entry)
Put plainly: Agonist activity at human GLP2R expressed in HEK293 cells after 5 hrs by luciferase reporter gene assay. It counts as cell-based.

The nature of data set [5]: Systemic clearance in Sprague-Dawley rat at 0.2 mg/kg, iv through cassette dosing measured up to 300 mins by LC/MS/MS analysis. The settings on record: in vivo. The format is ADME, organism-based.

Active and inactive are the calls of the source. No cut-off for these calls is given here.

By EC50 is commonly meant the concentration needed to bring the measured effect to its halfway point. A high value points to a need for much substance. Consider `CCCCC(NC(=O)[C@H](CCC(=O)O)NC(=O)[C@H](CC(=O)O)NC(=O)[C@H](CO)NC(=O)[C@H](Cc1ccccc1)NC(=O)[C@H](CO)NC(=O)CNC(=O)[C@H](CC(=O)O)NC(=O)CNC(=O)[C@@H](N)Cc1cnc[nH]1)C(=O)N[C@@H](CC(N)=O)C(=O)N[C@H](C(=O)N[C@H](C(=O)N[C@H](CC(C)C)C(=O)N[C@@H](CC(=O)O)C(=O)N[C@@H](CC(N)=O)C(=O)N[C@@H](CC(C)C)C(=O)N[C@@H](C)C(=O)N[C@@H](C)C(=O)N[C@@H](CCCNC(=N)N)C(=O)N[C@@H](CC(=O)O)C(=O)N[C@@H](Cc1ccccc1)C(=O)N[C@H](C(=O)N[C@@H](CC(N)=O)C(=O)N[C@@H](Cc1c[nH]c2ccccc12)C(=O)N[C@@H](CC(C)C)C(=O)N[C@H](C(=O)N[C@@H](CCC(N)=O)C(=O)N[C@H](C(=O)N[C@@H](CCCCN)C(N)=O)[C@@H](C)O)[C@@H](C)CC)[C@@H](C)CC)[C@@H](C)CC)[C@@H](C)O` (some centres not stated), for which the Ratio EC50 is above 110 in the data set with HEK293 and 40 in data set [1]. In data set [2], the result was inactive. Besides, the figures for the EC50 in data set [3] and in data set [4] were above 1000 nM and 8.9 nM, respectively.

In the case of `CCCCC(NC(=O)[C@H](CCC(=O)O)NC(=O)[C@H](CC(=O)O)NC(=O)[C@H](CO)NC(=O)[C@H](Cc1ccccc1)NC(=O)[C@H](CO)NC(=O)CNC(=O)[C@H](CC(=O)O)NC(=O)CNC(=O)[C@@H](N)Cc1cnc[nH]1)C(=O)N[C@H](CC(N)=O)C(=O)N[C@H](C(=O)N[C@H](C(=O)N[C@@H](CC(C)C)C(=O)N[C@@H](CC(=O)O)C(=O)N[C@@H](CC(N)=O)C(=O)N[C@@H](CC(C)C)C(=O)N[C@@H](C)C(=O)N[C@@H](C)C(=O)N[C@@H](CCCNC(=N)N)C(=O)N[C@@H](CC(=O)O)C(=O)N[C@@H](Cc1ccccc1)C(=O)N[C@H](C(=O)N[C@@H](CC(N)=O)C(=O)N[C@@H](Cc1c[nH]c2ccccc12)C(=O)N[C@@H](CC(C)C)C(=O)N[C@H](C(=O)N[C@@H](CCC(N)=O)C(=O)N[C@H](C(=O)N[C@@H](CCCCN)C(N)=O)[C@@H](C)O)[C@@H](C)CC)[C@@H](C)CC)[C@@H](C)CC)[C@@H](C)O` (some centres not stated), the Ratio EC50 is above 6200 with HEK293 and 0.73 in data set [1]. Also, in data set [2], the result was inactive. Besides, the results for the EC50 in data set [3] and in data set [4] were above 1000 nM and 0.16 nM, respectively.

`CCCCC(NC(=O)[C@H](CCC(=O)O)NC(=O)[C@H](CC(=O)O)NC(=O)[C@H](CO)NC(=O)[C@H](Cc1ccccc1)NC(=O)[C@H](CO)NC(=O)CNC(=O)[C@H](CC(=O)O)NC(=O)CNC(=O)[C@@H](N)Cc1cnc[nH]1)C(=O)N[C@@H](CC(N)=O)C(=O)N[C@H](C(=O)N[C@H](C(=O)N[C@@H](CC(C)C)C(=O)N[C@@H](CC(=O)O)C(=O)N[C@@H](CC(N)=O)C(=O)N[C@@H](CC(C)C)C(=O)N[C@@H](C)C(=O)N[C@@H](C)C(=O)N[C@@H](CCCNC(=N)N)C(=O)N[C@@H](CC(=O)O)C(=O)N[C@@H](Cc1ccccc1)C(=O)N[C@H](C(=O)N[C@H](CC(N)=O)C(=O)N[C@@H](Cc1c[nH]c2ccccc12)C(=O)N[C@@H](CC(C)C)C(=O)N[C@H](C(=O)N[C@@H](CCC(N)=O)C(=O)N[C@H](C(=O)N[C@@H](CCCCN)C(N)=O)[C@@H](C)O)[C@@H](C)CC)[C@@H](C)CC)[C@@H](C)CC)[C@@H](C)O` (some centres not stated): the values for the Ratio EC50 (with HEK293; in data set [1]) were above 2300 and 2, respectively. Also, the result in data set [2] was inactive. Moreover, the EC50 is above 1000 nM in data set [3] and 0.43 nM in data set [4].

With H-HGDGSFSDEMNTILDNLAARDFINWLIQTKI-NH2, the Ratio EC50 with HEK293 is above 2000; in data set [1], 5.3. In addition, the EC50 is above 1000 nM in data set [3] and 0.48 nM in data set [4].

For H-HGDGSFSDEMNTILDNLAARDFINWLIQTKIT-NH2, the values for the Ratio EC50 (with HEK293; in data set [1]) were above 3400 and 3.2, respectively. In addition, the EC50 in data set [3] is above 1000 nM; in data set [4] it was 0.29 nM.

The clearance is a measure of how efficiently the substance is removed, as volume per time. Low values mean inefficient removal, high ones efficient removal. `CCCCC(NC(=O)[C@H](CCC(=O)O)NC(=O)[C@H](CC(=O)O)NC(=O)[C@H](CO)NC(=O)[C@H](Cc1ccccc1)NC(=O)[C@H](CO)NC(=O)CNC(=O)[C@H](CC(=O)O)NC(=O)CNC(=O)[C@@H](N)Cc1cnc[nH]1)C(=O)N[C@H](Cc1cnc[nH]1)C(=O)N[C@H](C(=O)N[C@H](C(=O)N[C@@H](CC(C)C)C(=O)N[C@@H](CC(=O)O)C(=O)N[C@@H](CC(N)=O)C(=O)N[C@@H](CC(C)C)C(=O)N[C@@H](C)C(=O)N[C@@H](C)C(=O)N[C@@H](CCCNC(=N)N)C(=O)N[C@@H](CC(=O)O)C(=O)N[C@@H](Cc1ccccc1)C(=O)N[C@H](C(=O)N[C@@H](CC(N)=O)C(=O)N[C@@H](Cc1c[nH]c2ccccc12)C(=O)N[C@@H](CC(C)C)C(=O)N[C@H](C(=O)N[C@@H](CCC(N)=O)C(=O)N[C@H](C(=O)N[C@@H](CCCCN)C(N)=O)[C@@H](C)O)[C@@H](C)CC)[C@@H](C)CC)[C@@H](C)CC)[C@@H](C)O` (some centres not stated): in the data set with HEK293, the Ratio EC50 was above 5000. The result in data set [2] was inactive. For the same compound, the clearance in data set [5] was 0.73 mL/min/kg. The EC50 in data set [3] is above 1000 nM; in data set [4] it was 0.2 nM.

H-HGDGSFSDEMNTILDNLAARDFINWLI-NH2: the figures for the Ratio EC50 (in the data set with HEK293; in data set [1]) were above 900 and 12, respectively. In addition, the EC50 is above 1000 nM in data set [3] and 1.1 nM in data set [4].

Turning to H-HGDGSFSDEMNTILDNLAARDFINWLIQT-NH2, the values for the Ratio EC50 (in the data set with HEK293; in data set [1]) were above 1500 and 7, respectively. The EC50 in data set [3] was above 1000 nM; in data set [4], 0.63 nM.

For H-HGDGSFSDEMNTILDNLAARDFINW-NH2, in data set [1], the Ratio EC50 is above 330. The EC50 in data set [3] was above 1000 nM; in data set [4], above 30 nM.

For the compound H-HGDGSFSDEMNTILDNLAARDFINWLIQ-NH2, the values for the Ratio EC50 (with HEK293; in data set [1]) were above 900 and 12, respectively. The EC50 was above 1000 nM in data set [3] and 1.1 nM in data set [4].

Regarding `CCCCC(NC(=O)[C@H](CCC(=O)O)NC(=O)[C@H](CC(=O)O)NC(=O)[C@H](CO)NC(=O)[C@H](Cc1ccccc1)NC(=O)[C@H](CO)NC(=O)CNC(=O)[C@H](CC(=O)O)NC(=O)CNC(=O)[C@@H](N)Cc1cnc[nH]1)C(=O)N[C@@H](CC(N)=O)C(=O)N[C@H](C(=O)N[C@H](C(=O)N[C@@H](CC(C)C)C(=O)N[C@@H](CC(=O)O)C(=O)N[C@@H](CC(N)=O)C(=O)N[C@@H](CC(C)C)C(=O)N[C@@H](C)C(=O)N[C@@H](C)C(=O)N[C@@H](CCCNC(=N)N)C(=O)N[C@@H](CC(=O)O)C(=O)N[C@@H](Cc1ccccc1)C(=O)N[C@H](C(=O)N[C@@H](CC(N)=O)C(=O)N[C@H](Cc1c[nH]c2ccccc12)C(=O)N[C@@H](CC(C)C)C(=O)N[C@H](C(=O)N[C@@H](CCC(N)=O)C(=O)N[C@H](C(=O)N[C@@H](CCCCN)C(N)=O)[C@@H](C)O)[C@@H](C)CC)[C@@H](C)CC)[C@@H](C)CC)[C@@H](C)O` (some centres not stated), the Ratio EC50 in data set [1] was above 130. Also, the outcome in data set [2] was inactive. Besides, the EC50 in data set [3] was above 1000 nM; in data set [4], above 30 nM.

On to `CCCCC(NC(=O)[C@H](CCC(=O)O)NC(=O)[C@H](CC(=O)O)NC(=O)[C@H](CO)NC(=O)[C@H](Cc1ccccc1)NC(=O)[C@H](CO)NC(=O)CNC(=O)[C@H](CC(=O)O)NC(=O)CNC(=O)[C@@H](N)Cc1cnc[nH]1)C(=O)N[C@H](CCN)C(=O)N[C@H](C(=O)N[C@H](C(=O)N[C@@H](CC(C)C)C(=O)N[C@@H](CC(=O)O)C(=O)N[C@@H](CC(N)=O)C(=O)N[C@@H](CC(C)C)C(=O)N[C@@H](C)C(=O)N[C@@H](C)C(=O)N[C@@H](CCCNC(=N)N)C(=O)N[C@@H](CC(=O)O)C(=O)N[C@@H](Cc1ccccc1)C(=O)N[C@H](C(=O)N[C@@H](CC(N)=O)C(=O)N[C@@H](Cc1c[nH]c2ccccc12)C(=O)N[C@@H](CC(C)C)C(=O)N[C@H](C(=O)N[C@@H](CCC(N)=O)C(=O)N[C@H](C(=O)N[C@@H](CCCCN)C(N)=O)[C@@H](C)O)[C@@H](C)CC)[C@@H](C)CC)[C@@H](C)CC)[C@@H](C)O` (some centres not stated), for which, in the data set with HEK293, the Ratio EC50 is above 1500. In data set [2], the result was inactive. In data set [5], this compound registered a clearance of 9.7 mL/min/kg. In addition, the EC50 in data set [3] is above 1000 nM; in data set [4], 0.66 nM.

(Values after ChEMBL document CHEMBL3822442, “Synthesis and Pharmacological Characterization of Novel Glucagon-like Peptide-2 (GLP-2) Analogues with Low Systemic Clearance” (J Med Chem, 2016).)
